{"source": "patent US20090041760A1", "about": "“RETROVIRAL IMMUNOTHERAPY” (priority 2000, published 2009)", "key": {"[1]": {"tested_on": "LP-BM5 murine leukemia virus (MuLV)", "test": "MAIDS development in LP-BM5 infected mice after a single dose of vinblastine at different times post infection", "type": "in vivo, C57BL/6 mice", "excerpt": "A murine AIDS (MAIDS) pathology induced by LP-BM5 murine leukemia virus (MuLV) in susceptible mice is an effective tool to investigate mechanisms of retrovirus-induced immunodeficiency. […] Infection of a susceptible strain such as C57BL/6 mice with LP-BM5 leads to chronic splenomegaly, hypergammaglobulinaemia and development of immunodeficiency in both T and B cells. In vitro, there is a progressive impairment in the responsiveness of T-cells and B-cells to mitogenic or specific antigenic stimuli. In vivo, infected mice become increasingly susceptible to challenge with a variety of opportunistic organisms and can develop B-cell lymphoma. Deaths are first observed at 8-10 weeks post-infection (pi), and all mice die within 24 weeks (FIG. 1). These alterations in immune function reflect complex changes in the phenotype and function of all components of the immune network.\nThe treatment with a single dose of the anti-mitotic agent vinblastine (Vb) at different times pi is able to prevent the development/progression of MAIDS. […] Clearly, the Vb treatment is remarkably therapeutic when administered at 6 hr or 14 days pi with 100% ( 10/10) and 74% ( 20/27) of mice, respectively, showing no signs of MAIDS development at 10 weeks pi (as determined by spleen weight, histology and FACS analysis). […] Additional experiments have provided results of 100% of mice having no signs of MAIDS development at least 12 months after Vb treatment 14 days pi (data not shown). Although not as pronounced as the protection seen after day 14 treatment, moderate protection from MAIDS development was still observed. […] The total protection from MAIDS development seen in mice given Vb at 6 hrs pi is not unexpected as the virus replicates in actively replicating cells which are the target of the anti-mitotic drug thus any cells infected with the virus are killed by the Vb preventing the virus from rapidly establishing an infection in the host. However, the highly protective effect observed after a single treatment with Vb at 14 days pi is quite remarkable as, by this stage, the viral infection is well established and the early disease processes are well underway. We propose that this highly therapeutic effect is due to the Vb targeting a particular subset of immune regulator cells during their expansion phase and thereby altering the immune response to the viral infection. […] This leads to long term disease free survival for many months post-infection and treatment.\nSpleens from the Day 14 pi Vb treated mice as well as infected and uninfected control mice were weighed and examined histologically. The splenic architecture of all MAIDS infected mice was profoundly disorganised as previously reported (Hartley et al., 1989)."}, "MAIDS virus [2]": {"tested_on": "MAIDS virus", "test": "Rechallenge with MAIDS virus following protective vinblastine therapy", "type": "in vivo, mice", "settings": "Vb at day 14 pi, rechallenge at 3 or 8 weeks post Vb treatment", "excerpt": "To determine if mice protected from MAIDS by the day 14 pi Vb treatment develop an immune response which would then protect them from a subsequent rechallenge with the MAIDS virus groups of mice, given the Vb therapy at day 14 pi, were rechallenged with the MAIDS virus at 3 or 8 weeks post Vb treatment. […] This is not an unexpected result as the dominant immunosuppression by the regulator population of cells would have been restored as a consequence of the immune effector response to the second (untreated) infection."}, "[3]": {"tested_on": "CD4+, CD8+ and CD25+CD4+ T cells of spleen", "test": "FACS analysis of spleen cells following Vb therapy on day 14 post infection", "type": "in vivo, mice", "description": "FACS analysis of CD4^+ and CD8^+ T cells prepared from spleens of mice treated with Vb on Day 14 pi was performed (FIG. 6). CD25^+CD4^+ T cells were also examined as they have recently been identified as having an important regulatory function in mouse models of autoimmune disease and tumour immunology (Takahashi et al., 1998; Shimizu et al., 1999). It is possible that these cells may play a role in the regulation of the immune response to MAIDS. Day 14 pi and uninfected control mice were given Vb therapy and the spleens collected at 48 hours post Vb treatment."}, "MAIDS virus [4]": {"tested_on": "MAIDS virus", "test": "Spleen cell transfer into MAIDS infected, day 14 Vb treated mice", "type": "in vivo", "excerpt": "The experiments illustrated in FIG. 7 were designed to determine if a single dose of Vb, administered at 14 days pi, is eliminating a population of expanding CD4^+regulator T cells and thereby releasing effector cells from down-regulation and clearing the host of the MAIDS virus.\nMice were infected with MAIDS, received day 14 pi Vb treatment and then received an adoptive transfer of ~10^7 spleen cells from donor mice prepared as outlined in FIG. 7. For each experiment [designated (I), (II) and (III)] groups consisted of 7 recipient mice and 9 donor mice. Mice in Group I received whole spleens from infected mice that had not received any Vb treatment. Mice in Group II received whole spleen cell preparations, from infected mice, that had been depleted of CD4^+ cells using a FACS cell sorter after staining with fluorochrome-labeled anti-CD4 monoclonal antibody. […] Mice in Group III received whole spleens from infected donor mice that also received Vb treatment on day 14 pi."}, "MAIDS virus [5]": {"tested_on": "MAIDS virus", "test": "Adoptive transfer of CD4+ CD25+/- cells into MAIDS infected, day 14 Vinblastine treated mice", "type": "in vivo", "settings": "uninfected donor cells into MAIDS-infected day 14 Vb-treated recipients; n=5", "excerpt": "An adoptive transfer experiment was designed to directly test the hypothesis that CD4+ CD25+ T cells are functioning as the regulator cells in the murine AIDS model. The same approach used to determine that the regulator cells are CD4+ T cells was used to test whether the CD4+ CD25+ subset are the target of day 14 Vinblastine treatment. […] 2.0×10^6 cells of the regulator CD4+ CD25+ phenotype were purified from single cell suspensions of donor spleens using MACS beads (Miltenyi Biotec) using two positive selection steps. The cells were then tested for purity by flow cytometry (both CD4+ CD25+ and CD4+ CD25− fractions were of >90% purity) and viability using trypan blue exclusion prior to transfer into uninfected (control) and MAIDS infected day 14 Vinblastine treated mice. CD4+ CD25− cells were also transferred to allow that the regulator cells may not present in the CD25+ fraction and also to allow for the possibility that these putative regulator cells may lose CD25 expression as they expand and become activated as was reported by Gavin et al., 2002.\nMice receiving adoptive transfer of cells were either uninfected (control) or MAIDS infected and day 14 Vinblastine treated to examine whether the transfer of cells would result in disease progression. […] Disease progression was assessed by spleen weight at 10 weeks post MAIDS infection."}, "murine T cell lymphoma": {"tested_on": "murine T cell lymphoma", "settings": "cited from earlier work"}}, "note": "Like-named read-outs stand apart in the source and are kept apart here.", "data": [{"smiles": "CC[C@]1(O)C[C@@H]2CN(CCc3c([nH]c4ccccc34)[C@@](C(=O)OC)(c3cc4c(cc3OC)N(C)[C@H]3[C@@](O)(C(=O)OC)[C@H](OC(C)=O)[C@]5(CC)C=CCN6CC[C@]43[C@@H]65)C2)C1", "note": "[Vb, vinblastine]", "values": [{"measurement": "mice protected from any splenomegaly at 20 weeks pi", "setting": "[1]; Vb at day 14 pi, 4/5 mice", "value": 80, "unit": "%"}, {"measurement": "mice having no signs of MAIDS development at least 12 months after treatment", "setting": "[1]; Vb treatment 14 days pi, additional experiments, data not shown", "value": 100, "unit": "%"}, {"measurement": "splenic architecture (histology) at 10 weeks pi", "setting": "[1]; day 14 pi Vb treated mice with normal spleen weights (below 0.25 g)", "value": "indistinguishable from that of uninfected control mice"}, {"measurement": "FACS analysis of spleen cells: cellular proportions (CD4+, CD8+ and B cells) and distributions at 10 weeks pi", "setting": "[1]; day 14 pi Vb treated mice, preliminary, data not shown", "value": "like those observed in normal uninfected mice"}, {"measurement": "mice showing no signs of MAIDS development at 10 weeks pi (spleen weight, histology, FACS analysis)", "setting": "[1]; single 6 mg/kg i.p. dose at 6 hr pi, 10/10 mice", "value": 100, "unit": "%"}, {"measurement": "mice showing protective effect (no signs of MAIDS) at 10 weeks pi", "setting": "[1]; single 6 mg/kg i.p. dose at 6 days pi, 6/13 mice", "value": 46, "unit": "%"}, {"measurement": "mice showing no signs of MAIDS development at 10 weeks pi (spleen weight, histology, FACS analysis)", "setting": "[1]; single 6 mg/kg i.p. dose at 14 days pi, 20/27 mice", "value": 74, "unit": "%"}, {"measurement": "protection against MAIDS development", "setting": "[1]; single 6 mg/kg i.p. dose at day 2 pi", "value": "no protection against MAIDS development"}, {"measurement": "protection against MAIDS development", "setting": "[1]; single 6 mg/kg i.p. dose at day 7 pi", "value": "no protection against MAIDS development"}, {"measurement": "protection from viral rechallenge (splenomegaly, lymphadenopathy at 20 weeks)", "setting": "MAIDS virus [2]", "value": "not protected from viral rechallenge"}, {"measurement": "cell subsets targeted in MAIDS infected mice (uninfected to infected ratios)", "setting": "[3]; CD4+ T cells and CD25+CD4+ T cells, 48 hours post Vb at day 14 pi", "value": "preferentially targeted"}, {"measurement": "effect on spleen cell subsets", "setting": "[3]; spleens collected 48 hours post Vb, day 14 pi and uninfected mice", "value": "all cell subsets are reduced"}, {"measurement": "protection from MAIDS development after spleen cell transfer", "setting": "MAIDS virus [4]; Group I: ~10^7 whole spleen cells from MAIDS infected donors without Vb", "value": "completely prevented Vb from protecting mice from MAIDS development"}, {"measurement": "protection from MAIDS development after spleen cell transfer", "setting": "MAIDS virus [4]; Group II: donor spleen cells depleted of CD4+ cells by FACS sorting", "value": "the protective effect of Vb was not overcome"}, {"measurement": "protection from MAIDS development after spleen cell transfer", "setting": "MAIDS virus [4]; Group III: spleen cells from infected donors also given day 14 Vb", "value": "fully protected from MAIDS development"}, {"measurement": "disease progression (spleen weight at 10 weeks post MAIDS infection) after transfer of CD4+ CD25+/- cells", "setting": "MAIDS virus [5]", "value": "disease progression was readily apparent"}, {"measurement": "effect on tumour", "setting": "murine T cell lymphoma; single dose at day 10 following tumour inoculation", "value": "enhancement"}, {"measurement": "effect on tumour", "setting": "murine T cell lymphoma; single dose at days 4, 6, 13 and 15 following tumour inoculation", "value": "regression"}]}]}
